For 19 molecules, DC50 results are on record in US20250018046A1, “COMPOUNDS FOR TARGETING DEGRADATION OF IRAK4 PROTEINS” (BIOGEN MA INC, priority 2021, published 2025).

The target of the assay is T1, IRAK4 (Homo sapiens, UniProt Q9NWZ3).
T1 construct: knocking-in a HiBiT fusion tag into the C-terminal of the IRAK4 gene in 293T cells; host or cells: 293T cells, knock-in of HiBiT at the endogenous IRAK4 locus
T1 sequence (Q9NWZ3 1-460): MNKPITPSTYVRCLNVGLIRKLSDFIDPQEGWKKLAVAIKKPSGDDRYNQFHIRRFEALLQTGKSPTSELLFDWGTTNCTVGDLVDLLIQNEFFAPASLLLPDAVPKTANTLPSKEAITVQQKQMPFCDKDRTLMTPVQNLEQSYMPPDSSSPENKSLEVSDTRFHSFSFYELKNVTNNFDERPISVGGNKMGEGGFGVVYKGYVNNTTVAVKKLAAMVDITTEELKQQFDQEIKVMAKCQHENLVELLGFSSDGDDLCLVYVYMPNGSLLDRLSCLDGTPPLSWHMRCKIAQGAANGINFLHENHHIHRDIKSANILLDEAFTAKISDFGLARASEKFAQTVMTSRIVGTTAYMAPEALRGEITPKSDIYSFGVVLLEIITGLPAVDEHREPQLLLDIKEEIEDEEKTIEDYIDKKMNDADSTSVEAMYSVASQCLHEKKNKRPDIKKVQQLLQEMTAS
Put plainly: IRAK4 degradation assay using the HiBiT Method. The assay is classed as cell-based. The conditions noted are these: 293T cells expressing HiBiT-tagged IRAK4; 6-hour incubation; Nano-Glo HiBiT Lytic Assay luminescence. In a few lines: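 HEK293T cells with HiBiT knocked into the IRAK4 C-terminus, 10,000 cells per well, treated with an 11-point half-log series […] in duplicate for 6 hours at 37° C., 5% CO2. Remaining IRAK4 quantified by Nano-Glo HiBiT lytic luminescence against DMSO controls.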
(With HiBiT, luminescence reflects the tagged protein that the partner subunit can reach.)
In general, DC50 refers to the midpoint of the concentration-degradation curve. A higher DC50 goes with degradation only at high concentration. For `CC(C)Oc1cc2nc(C3CCN(C(=O)CN4CCC(c5ccc(NC6CCC(=O)NC6=O)cc5F)CC4)CC3)cn2cc1NC(=O)c1cccc(C(F)(F)F)n1` (stereo not shown) [Example 7, N-[2-[1-[2-[4-[4-[(2,6-dioxo-3-piperidyl)amino]-2-fluoro-phenyl]-1-piperidyl]acetyl]-4-piperidyl]-7-isopropoxy-imidazo[1,2-a]pyridin-6-yl]-6-(trifluoromethyl)pyridine-2-carboxamide], the DC50 is 100 to 500 nM.

In turn, `CC(C)Oc1cc2nc(CCCNC(=O)CN3CCC(c4ccc(NC5CCC(=O)NC5=O)cc4)CC3)cn2cc1NC(=O)c1cccc(C(F)(F)F)n1` (stereo not shown) [Example 71, N-[2-[3-[[2-[4-[4-[(2,6-dioxo-3-piperidyl)amino]phenyl]-1-piperidyl]acetyl]amino]propyl]-7-isopropoxy-imidazo[1,2-a]pyridin-6-yl]-6-(trifluoromethyl)pyridine-2-carboxamide] yielded a DC50 of 100 to 500 nM.

The molecule `CC(C)Oc1cc2nc(C3CCN(CC(=O)N4CCC(c5ccc(NC6CCC(=O)NC6=O)cc5)CC4)CC3)cn2cc1NC(=O)c1ccccc1` (stereo not shown) [Example 56, N-[2-[1-[2-[4-[4-[(2,6-dioxo-3-piperidyl)amino]phenyl]-1-piperidyl]-2-oxo-ethyl]-4-piperidyl]-7-isopropoxy-imidazo[1,2-a]pyridin-6-yl]benzamide] registered a DC50 of 100 to 500 nM.

`CC(C)Oc1cc2nc(C3CCN(CCN4CCC(c5ccc(C6CCC(=O)NC6=O)cc5F)CC4)CC3)cn2cc1NC(=O)c1cccc(C(F)(F)F)n1` (stereo not shown) [Example 64, N-[2-[1-[2-[4-[4-(2,6-dioxo-3-piperidyl)-2-fluoro-phenyl]-1-piperidyl]ethyl]-4-piperidyl]-7-isopropoxy-imidazo[1,2-a]pyridin-6-yl]-6-(trifluoromethyl)pyridine-2-carboxamide] showed a DC50 of 100 to 500 nM.

On to `CC(C)Oc1cc2nc(C3CCCN(C(=O)CN4CCC(c5ccc(C6CCC(=O)NC6=O)cc5)CC4)C3)cn2cc1NC(=O)c1cccc(C(F)(F)F)n1` (stereo not shown) [Example 76, N-[2-[1-[2-[4-[4-(2,6-dioxo-3-piperidyl)phenyl]-1-piperidyl]acetyl]-3-piperidyl]-7-isopropoxy-imidazo[1,2-a]pyridin-6-yl]-6-(trifluoromethyl)pyridine-2-carboxamide], for which the DC50 fell in the range of 100 to 500 nM.

The molecule `CC(C)Oc1cn2cc(C3CCN(CC(=O)N4CCC(c5ccc(NC6CCC(=O)NC6=O)cc5)CC4)CC3)nc2cc1NC(=O)c1cccc(C(F)(F)F)n1` (single isomer, unassigned) [Example 14, N-[2-[1-[2-[4-[4-[[2,6-dioxo-3-piperidyl]amino]phenyl]-1-piperidyl]-2-oxo-ethyl]-4-piperidyl]-6-isopropoxy-imidazo[1,2-a]pyridin-7-yl]-6-(trifluoromethyl)pyridine-2-carboxamide] gave a 50% degradation concentration (DC50) of 10 to 100 nM.

`CC(C)Oc1cc2nc([C@H]3CC[C@H](CN(C)C4CCN(c5ccc(NC6CCC(=O)NC6=O)cc5)CC4)CC3)cn2cc1NC(=O)c1cccc(C(F)(F)F)n1` (stereo partly shown) [Example 36, N-[2-[4-[[[1-[4-[(2,6-dioxo-3-piperidyl)amino]phenyl]-4-piperidyl]-methyl-amino]methyl]cyclohexyl]-7-isopropoxy-imidazo[1,2-a]pyridin-6-yl]-6-(trifluoromethyl)pyridine-2-carboxamide] gave a DC50 of 10 to 100 nM.

In turn, `CC(C)Oc1cc2nc(C3CCN(CCC(=O)N4CCC(c5ccc(NC6CCC(=O)NC6=O)cc5)CC4)CC3)cn2cc1NC(=O)c1cccc(C(F)(F)F)n1` (stereo not shown) [Example 30, N-[2-[1-[3-[4-[4-[(2,6-dioxo-3-piperidyl)amino]phenyl]-1-piperidyl]-3-oxo-propyl]-4-piperidyl]-7-isopropoxy-imidazo[1,2-a]pyridin-6-yl]-6-(trifluoromethyl)pyridine-2-carboxamide] registered a 50% degradation concentration (DC50) of 100 to 500 nM.

Take `CC(C)Oc1cc2nc(C3CCC(CN4CCC(c5ccc(C6CCC(=O)NC6=O)cc5)CC4)CC3)cn2cc1NC(=O)c1cccc(C(F)(F)F)n1` (stereo not shown) [Example 35, N-[2-[4-[[4-[4-(2,6-dioxo-3-piperidyl)phenyl]-1-piperidyl]methyl]cyclohexyl]-7-isopropoxy-imidazo[1,2-a]pyridin-6-yl]-6-(trifluoromethyl)pyridine-2-carboxamide]: the 50% degradation concentration (DC50) is 100 to 500 nM.

The molecule `CC(C)Oc1cc2nc(C3CCN(CCN4CCN(c5ccc(C6CCC(=O)NC6=O)cc5)CC4)CC3)cn2cc1NC(=O)c1cccc(C(F)(F)F)n1` (stereo not shown) [Example 65, N-[2-[1-[2-[4-[4-(2,6-dioxo-3-piperidyl)phenyl]piperazin-1-yl]ethyl]-4-piperidyl]-7-isopropoxy-imidazo[1,2-a]pyridin-6-yl]-6-(trifluoromethyl)pyridine-2-carboxamide] showed a DC50 of 10 to 100 nM.

Consider `Cc1cc(NC2CCC(=O)NC2=O)ccc1C1CCN(C(=O)CN2CCC(c3cn4cc(NC(=O)c5cccc(C(F)(F)F)n5)c(OC(C)C)cc4n3)CC2)CC1` (stereo not shown) [Example 87, N-[2-[1-[2-[4-[4-[(2,6-dioxo-3-piperidyl)amino]-2-methyl-phenyl]-1-piperidyl]-2-oxo-ethyl]-4-piperidyl]-7-isopropoxy-imidazo[1,2-a]pyridin-6-yl]-6-(trifluoromethyl) pyridine-2-carboxamide], for which the DC50 lay within 10 to 100 nM.

In the case of `CC(C)Oc1cc2nc(C3CCN(C(=O)CN4CCC(c5ccc(NC6CCC(=O)NC6=O)cc5)CC4)CC3)cn2cc1NC(=O)c1cccc(C(F)(F)F)n1` (stereo not shown) [Example 9, N-[2-[1-[2-[4-[4-[(2,6-dioxo-3-piperidyl)amino]phenyl]-1-piperidyl]acetyl]-4-piperidyl]-7-isopropoxy-imidazo[1,2-a]pyridin-6-yl]-6-(trifluoromethyl)pyridine-2-carboxamide], the half-maximal degradation concentration (DC50) was in the range of 10 to 100 nM.

As for `CC(C)Oc1cc2nc(C3CCN(CCN4CCC(c5ccc(NC6CCC(=O)NC6=O)cc5F)CC4)CC3)cn2cc1NC(=O)c1cccc(C(F)(F)F)n1` (stereo not shown) [Example 67, N-[2-[1-[2-[4-[4-[(2,6-dioxo-3-piperidyl)amino]-2-fluoro-phenyl]-1-piperidyl]ethyl]-4-piperidyl]-7-isopropoxy-imidazo[1,2-a]pyridin-6-yl]-6-(trifluoromethyl)pyridine-2-carboxamide], the half-maximal degradation concentration (DC50) was 100 to 500 nM.

Consider `CC(C)Oc1cc2nc(C3CCN(CC(=O)N4CCN(CCc5ccc(NC6CCC(=O)NC6=O)cc5)CC4)CC3)cn2cc1NC(=O)c1cccc(C(F)(F)F)n1` (stereo not shown) [Example 19, N-[2-[1-[2-[4-[2-[4-[(2,6-dioxo-3-piperidyl)amino]phenyl]ethyl]piperazin-1-yl]-2-oxo-ethyl]-4-piperidyl]-7-isopropoxy-imidazo[1,2-a]pyridin-6-yl]-6-(trifluoromethyl) pyridine-2-carboxamide], for which the DC50 was 10 to 100 nM.

Consider `CC(C)Oc1cc2nc(C3CCN(CC(=O)N4CCC(c5ccc(NC6CCC(=O)NC6=O)cn5)CC4)CC3)cn2cc1NC(=O)c1cccc(C(F)(F)F)n1` (stereo not shown) [Example 11, N-[2-[1-[2-[4-[5-[(2,6-dioxo-3-piperidyl)amino]-2-pyridyl]-1-piperidyl]-2-oxo-ethyl]-4-piperidyl]-7-isopropoxy-imidazo[1,2-a]pyridin-6-yl]-6-(trifluoromethyl)pyridine-2-carboxamide], for which the DC50 lay in the range of 100 to 500 nM.

Molecule `CC(C)Oc1cc2nc(C3CCN(C(=O)C4CCN(C(=O)c5ccc(OC6CCC(=O)NC6=O)cc5)CC4)CC3)cn2cc1NC(=O)c1cccc(C(F)(F)F)n1` (stereo not shown) [Example 84, N-[2-[1-[1-[4-[(2,6-dioxo-3-piperidyl)oxy]benzoyl]piperidine-4-carbonyl]-4-piperidyl]-7-isopropoxy-imidazo[1,2-a]pyridin-6-yl]-6-(trifluoromethyl)pyridine-2-carboxamide] returned a DC50 of 500 to 1000 nM.

Take `CC(C)Oc1cc2nc(C3CCN(CC(=O)N4CCC(c5ccc(NC6CCC(=O)NC6=O)cc5)CC4)CC3)cn2cc1NC(=O)c1cnn2cccnc12` (stereo not shown) [Example 57, N-(2-(1-(2-(4-(4-((2,6-dioxopiperidin-3-yl)amino)phenyl)piperidin-1-yl)-2-oxoethyl)piperidin-4-yl)-7-isopropoxyimidazo[1,2-a]pyridin-6-yl)pyrazolo[1,5-a]pyrimidine-3-carboxamide]: the 50% degradation concentration (DC50) is less than 10 nM.

With `CC(C)Oc1cc2nc(CC3CCN(C(=O)CN4CCC(c5ccc(C6CCC(=O)NC6=O)cc5)CC4)CC3)cn2cc1NC(=O)c1cccc(C(F)(F)F)n1` (stereo not shown) [Example 79, N-[2-[[1-[2-[4-[4-(2,6-dioxo-3-piperidyl)phenyl]-1-piperidyl]acetyl]-4-piperidyl]methyl]-7-isopropoxy-imidazo[1,2-a]pyridin-6-yl]-6-(trifluoromethyl)pyridine-2-carboxamide], the DC50 lay within 10 to 100 nM.

Regarding `CC(C)Oc1cc2nc(C3CCN(C(=O)CCN4CCC(c5ccc(NC6CCC(=O)NC6=O)cc5F)CC4)CC3)cn2cc1NC(=O)c1cccc(C(F)(F)F)n1` (stereo not shown) [Example 8, N-[2-[1-[3-[4-[4-[(2,6-dioxo-3-piperidyl)amino]-2-fluoro-phenyl]-1-piperidyl]propanoyl]-4-piperidyl]-7-isopropoxy-imidazo[1,2-a]pyridin-6-yl]-6-(trifluoromethyl)pyridine-2-carboxamide], the half-maximal degradation concentration (DC50) was in the range of 10 to 100 nM.
